The values that follow come from patent publication US12685726B2, “Sulfoximines as inhibitors of NaV1.8” (Gruenenthal GmbH, priority 2022, dated 2026).

In the assay the target is T1, human NaV 1.8 (Homo sapiens, UniProt Q9Y5Y9).
T1 construct: expressed in transfected cells; host or cells: HEK (recombinant cell line)
Nature of the assay: Automated whole-cell patch clamp (Qube384) voltage-clamp recordings of sodium currents in HEK-NaV1.8 cell line. It is filed as cell-based. Particulars: read-out: Potency category (human NaV 1.8 IC50). As for the experimental part:
Electrophysiology: Voltage-Clamp Recordings
The following NaV1.8 recombinant cell line was used for recordings: HEK-NaV1.8 (NM_006514.1) with b3 (NM_018400.3).
Sodium currents were measured using the patch clamp technique in the whole-cell configuration using the Qube384 (Sophion A/S, Copenhagen, Denmark) automated voltage clamp platform. “Multi hole” plates were used for the cell line expressing NaV1.8 while “single hole” plates were used for the recombinant cell lines expressing the other subtypes. Appropriate filters (for minimum seal resistance and minimum current size) and series resistance compensation (for high quality sodium channel recordings) were applied. Data was collected at ambient room temperature or 19° C.
The recording extracellular solution contained (in mM): NaCl 145 mM, KCl 4 mM, CaCl2 2 mM, MgCl2 1 mM, HEPES 10 mM, Glucose 10 mM, pH 7.4 (NaOH). The intracellular recording solution contained (in mM): CsF 120 mM, CsCl 20 mM, NaCl 10 mM, EGTA 10 mM, HEPES 10 mM, pH 7.2 (CsOH). Currents were recorded at 25 kHz sampling frequency and filtered at 5 kHz. Series resistance compensation was applied at 65%.
Vehicle (VEH) is the control condition where cells are exposed to 0.3% DMSO without compound. All runs include VEH controls being exposed to the same voltage protocols to assess non-compound related phenomena such as run down and then used to isolate compound dependent effects on currents.
To check for state-dependent inhibition, the following voltage-sequence was applied every 20 seconds:
From a resting membrane potential of −120 mV, the first test pulse (P1; 20 ms to −10 mV) was applied to check for channels in the Resting State followed by a brief recovery (100 ms to −120 mV), then holding the membrane voltage to V1/2 (4 seconds at voltage to obtain half the channel at Rest and half Inactivated) with a subsequent second test pulse (P2; 20 ms to −10 mV) to check for channels in the Inactivated State, followed by another brief recovery (20 ms to −120 mV) and a final third test pulse (P3; 20 ms to −10 mV) to check for recovered channels.
To check for frequency-dependent inhibition, a 10 Hz protocol and a 20 Hz protocol were applied; namely,
From a resting membrane potential of −120 mV, 40-pulses (10 ms to −10 mV) was applied at 10 Hz (at 100 ms between pulses) and then at 20 Hz (at 50 ms between pulses).
Each parameter was recorded (P1, P2, P3, P40 from 10 Hz and P40 from 20 Hz) during a control period (lasting 5 minutes) when establishing the baseline and during compound period (lasting ~12 minutes) when test compound (or vehicle) was applied. For each parameter, the value at the end of the compound period was normalized to the vehicle baseline; as follows
To adjust for any variance in the Na^+ current signal during the compound period (owing to cumulative inactivation independent of compound or shifts in biophysics over time), a dedicated segment of the recording wells in each 384 plate were dedicated to having only vehicle exposure. These vehicle-only recordings were used to correct for any apparent “run-up” or “run-down” in the experiment.
The adjusted inhibition was calculated as follows: […]
Percent inhibition was determined and IC50 values were calculated using a 4 parameter logistic model within XLFit Software (IDBS, Boston MA): F
[formula] where A and B are the maximal and minimum inhibition respectively, C is the IC50 concentration and D is the (Hill) slope.

Bounds are passed on as bounds.

T1 sequence (Q9Y5Y9 whole entry): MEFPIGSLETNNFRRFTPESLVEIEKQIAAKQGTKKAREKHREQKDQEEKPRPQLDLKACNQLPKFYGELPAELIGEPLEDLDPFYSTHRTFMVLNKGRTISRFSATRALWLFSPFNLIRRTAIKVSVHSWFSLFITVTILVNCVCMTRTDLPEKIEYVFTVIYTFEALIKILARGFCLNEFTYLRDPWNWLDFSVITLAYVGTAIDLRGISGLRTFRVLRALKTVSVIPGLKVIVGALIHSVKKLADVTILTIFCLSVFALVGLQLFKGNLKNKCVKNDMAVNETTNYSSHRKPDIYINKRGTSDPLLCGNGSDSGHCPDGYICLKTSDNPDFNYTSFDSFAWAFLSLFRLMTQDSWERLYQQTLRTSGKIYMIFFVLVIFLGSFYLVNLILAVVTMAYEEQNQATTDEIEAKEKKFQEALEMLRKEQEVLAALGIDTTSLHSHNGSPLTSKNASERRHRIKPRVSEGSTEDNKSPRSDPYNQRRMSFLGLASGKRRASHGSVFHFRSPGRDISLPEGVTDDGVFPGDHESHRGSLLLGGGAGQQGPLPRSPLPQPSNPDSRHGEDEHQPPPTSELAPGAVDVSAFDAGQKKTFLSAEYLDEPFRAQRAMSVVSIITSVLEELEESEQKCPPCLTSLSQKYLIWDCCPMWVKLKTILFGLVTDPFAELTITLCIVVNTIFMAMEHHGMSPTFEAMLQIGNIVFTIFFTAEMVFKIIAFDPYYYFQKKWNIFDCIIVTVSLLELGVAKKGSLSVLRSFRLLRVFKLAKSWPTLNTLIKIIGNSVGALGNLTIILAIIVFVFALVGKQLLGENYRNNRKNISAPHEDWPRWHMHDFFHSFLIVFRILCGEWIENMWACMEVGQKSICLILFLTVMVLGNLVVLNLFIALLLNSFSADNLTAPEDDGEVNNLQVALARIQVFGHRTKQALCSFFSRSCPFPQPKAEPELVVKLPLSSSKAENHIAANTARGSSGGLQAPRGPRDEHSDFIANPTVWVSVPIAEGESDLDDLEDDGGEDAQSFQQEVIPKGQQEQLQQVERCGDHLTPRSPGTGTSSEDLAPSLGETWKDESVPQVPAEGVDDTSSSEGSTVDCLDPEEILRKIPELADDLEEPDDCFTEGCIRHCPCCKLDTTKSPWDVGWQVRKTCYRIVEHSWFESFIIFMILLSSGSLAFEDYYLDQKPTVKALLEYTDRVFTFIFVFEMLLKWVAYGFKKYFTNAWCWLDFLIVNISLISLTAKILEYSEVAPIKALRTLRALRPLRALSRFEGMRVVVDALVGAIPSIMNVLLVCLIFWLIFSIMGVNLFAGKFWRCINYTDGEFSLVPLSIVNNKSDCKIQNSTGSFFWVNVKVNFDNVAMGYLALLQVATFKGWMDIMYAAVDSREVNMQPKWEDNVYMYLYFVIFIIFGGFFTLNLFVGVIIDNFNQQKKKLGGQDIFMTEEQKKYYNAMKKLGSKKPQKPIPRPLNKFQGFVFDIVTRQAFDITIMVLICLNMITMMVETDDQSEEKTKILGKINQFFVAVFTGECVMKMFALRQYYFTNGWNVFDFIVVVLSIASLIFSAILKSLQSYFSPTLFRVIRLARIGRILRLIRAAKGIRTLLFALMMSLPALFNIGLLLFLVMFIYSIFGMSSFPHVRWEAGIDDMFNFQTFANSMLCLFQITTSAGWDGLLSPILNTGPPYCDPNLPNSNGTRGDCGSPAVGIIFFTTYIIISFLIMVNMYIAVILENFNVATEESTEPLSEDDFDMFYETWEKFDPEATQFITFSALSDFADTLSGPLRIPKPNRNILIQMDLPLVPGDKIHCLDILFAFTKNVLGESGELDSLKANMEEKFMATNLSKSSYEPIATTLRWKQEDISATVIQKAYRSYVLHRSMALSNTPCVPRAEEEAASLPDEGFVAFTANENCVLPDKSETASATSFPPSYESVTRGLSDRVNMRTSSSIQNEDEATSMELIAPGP

As for `CS(=N)(=O)c1cc(NC(=O)c2c(C(F)(F)F)c(C3CC3)nn2CC23CC(F)(C2)C3)ccn1` (single isomer, unassigned) [Example 25b, 3-cyclopropyl-1-((3-fluorobicyclo[1.1.1]pentan-1-yl)methyl)-N-(2-(S-methylsulfonimidoyl)pyridin-4-yl)-4-(trifluoromethyl)-1H-pyrazole-5-carboxamide], the IC50 was 100 to 1000 nM.
Regarding `CC1(Cn2nc(C3(F)CC3)c(C(F)(F)F)c2C(=O)Nc2ccnc(S(C)(=N)=O)c2)CC(F)(F)C1` (single isomer, unassigned) [Example 70a, 1-((3,3-Difluoro-1-methylcyclobutyl)methyl)-3-(1-fluorocyclopropyl)-N-(2-(S-methylsulfonimidoyl)pyridin-4-yl)-4-(trifluoromethyl)-1H-pyrazole-5-carboxamide], the 50% inhibitory concentration (IC50) is at most 100 nM.
For `CS(=N)(=O)c1cc(NC(=O)c2c(C(F)(F)F)c(C3CC3)nn2CC2(C(F)(F)F)CCCC2)ccn1` (single isomer, unassigned) [Example 98a, 3-cyclopropyl-N-(2-(S-methylsulfonimidoyl)pyridin-4-yl)-4-(trifluoromethyl)-1-((1-(trifluoromethyl)cyclopentyl)methyl)-1H-pyrazole-5-carboxamide], the IC50 was at most 100 nM.
Turning to `C[C@@H]1C[C@H]1c1nn(CC2(C)CC(F)(F)C2)c(C(=O)Nc2ccnc([S@@](C)(=N)=O)c2)c1C(F)(F)F` (single isomer, unassigned) [Example 65d, 1-((3,3-Difluoro-1-methylcyclobutyl)methyl)-3-((trans)-2-methylcyclopropyl)-N-(2-(S-methylsulfonimidoyl)pyridin-4-yl)-4-(trifluoromethyl)-1H-pyrazole-5-carboxamide], the 50% inhibitory concentration (IC50) was at most 100 nM.
Then `CC1(Cn2nc(C34CC(F)(C3)C4)c(C(F)(F)F)c2C(=O)Nc2ccc(F)c(S(C)(=N)=O)c2)CC(F)(F)C1` (single isomer, unassigned) [Example 141a, 1-((3,3-Difluoro-1-methylcyclobutyl)methyl)-N-(4-fluoro-3-(S-methylsulfonimidoyl)phenyl)-3-(3-fluorobicyclo[1.1.1]pentan-1-yl)-4-(trifluoromethyl)-1H-pyrazole-5-carboxamide], with at most 100 nM; and `CC1(Cn2nc(C3CC34CC4)c(C(F)(F)F)c2C(=O)Nc2ccnc(S(C)(=N)=O)c2)CC(F)(F)C1` (single isomer, unassigned) [Example 64b, 1-((3,3-difluoro-1-methylcyclobutyl)methyl)-N-(2-(S-methylsulfonimidoyl)pyridin-4-yl)-3-(spiro[2.2]pentan-1-yl)-4-(trifluoromethyl)-1H-pyrazole-5-carboxamide], with at most 100 nM.
With `CCS(=N)(=O)c1cc(NC(=O)c2c(C(F)(F)F)c(C3CC3)nn2CC2(C)CC(F)(F)C2)ccn1` (single isomer, unassigned) [Example 48a, 3-cyclopropyl-1-((3,3-difluoro-1-methylcyclobutyl)methyl)-N-(2-(ethylsulfonimidoyl)pyridin-4-yl)-4-(trifluoromethyl)-1H-pyrazole-5-carboxamide] the figure was at most 100 nM; with `CS(=N)(=O)c1cc(NC(=O)c2c(C(F)(F)F)c(C34CC(C3)C4)nn2CC2C[C@@H]2C(F)F)ccn1` (stereo in doubt) [Example 146, 3-(Bicyclo[1.1.1]pentan-1-yl)-1-(((trans)-2-(difluoromethyl)cyclopropyl)methyl)-N-(2-(S-methylsulfonimidoyl)pyridin-4-yl)-4-(trifluoromethyl)-1H-pyrazole-5-carboxamide], at most 100 nM; with `C[C@H]1C[C@@H]1c1nn(CC2(C)CC(F)(F)C2)c(C(=O)Nc2ccnc([S@](C)(=N)=O)c2)c1C(F)(F)F` (single isomer, unassigned) [Example 65a, 1-((3,3-Difluoro-1-methylcyclobutyl)methyl)-3-((trans)-2-methylcyclopropyl)-N-(2-(S-methylsulfonimidoyl)pyridin-4-yl)-4-(trifluoromethyl)-1H-pyrazole-5-carboxamide], at most 100 nM.
Take `C[S@@](=N)(=O)c1cccc(NC(=O)c2c(C(F)(F)F)c(C3(F)CC3)nn2CC2C[C@@H]2C(F)(F)F)c1` (single isomer, unassigned) [Example 134a, 3-(1-Fluorocyclopropyl)-N-(3-(S-methylsulfonimidoyl)phenyl)-4-(trifluoromethyl)-1-(((trans)-2-(trifluoromethyl)cyclopropyl)methyl)-1H-pyrazole-5-carboxamide]: the IC50 is at most 100 nM.
Turning to `CS(=N)(=O)c1cc(NC(=O)c2c(C(F)(F)F)c(C3CC3)nn2C[C@@H]2CCC(F)(F)C2)ccn1` (single isomer, unassigned) [Example 17d], the IC50 was at most 100 nM.
Then `CS(=N)(=O)c1cc(NC(=O)c2c(C(F)(F)F)c(C3CC3)nn2CC2C(F)(F)C23CCC3)ccn1` (single isomer, unassigned) [Example 136b, 3-Cyclopropyl-1-((2,2-difluorospiro[2.3]hexan-1-yl)methyl)-N-(2-(S-methylsulfonimidoyl)pyridin-4-yl)-4-(trifluoromethyl)-1H-pyrazole-5-carboxamide], with at most 100 nM.
As for `C[S@](=N)(=O)c1cc(NC(=O)c2c(C(F)(F)F)c(C3CC3)nn2C[C@H]2C(F)(F)C23CC3)ccn1` (single isomer, unassigned) [Example 79b, 3-cyclopropyl-1-((2,2-difluorospiro[2.2]pentan-1-yl)methyl)-N-(2-(S-methylsulfonimidoyl)pyridin-4-yl)-4-(trifluoromethyl)-1H-pyrazole-5-carboxamide], the IC50 was at most 100 nM.
Take `CC1(Cn2nc(C3CC3)c(C(F)(F)F)c2C(=O)Nc2ccnc(S(C)(=O)=NC[C@@H](O)CO)c2)CC(F)(F)C1` (stereo partly drawn) [Example 152, 3-Cyclopropyl-1-((3,3-difluoro-1-methylcyclobutyl)methyl)-N-(2-(N—((R)-2,3-dihydroxypropyl)-S-methylsulfonimidoyl)pyridin-4-yl)-4-(trifluoromethyl)-1H-pyrazole-5-carboxamide]: the IC50 is at most 100 nM.
With `CC1(Cn2nc(C3CC3)c(C(F)(F)F)c2C(=O)Nc2ccnc(S(C)(=N)=O)c2)CC(F)(F)C1` (single isomer, unassigned) [Example 1b, 3-cyclopropyl-1-((3,3-difluoro-1-methylcyclobutyl)methyl)-N-(2-(S-methylsulfonimidoyl)pyridin-4-yl)-4-(trifluoromethyl)-1H-pyrazole-5-carboxamide] the figure was at most 100 nM; with `C[S@@](=N)(=O)c1cc(NC(=O)c2c(C(F)(F)F)c(C3CC3)nn2C[C@H]2CC23CC3)ccn1` (single isomer, unassigned) [Example 78c, 3-cyclopropyl-N-(2-(S-methylsulfonimidoyl)pyridin-4-yl)-1-(spiro[2.2]pentan-1-ylmethyl)-4-(trifluoromethyl)-1H-pyrazole-5-carboxamide], at most 100 nM.
As for `CC1(Cn2nc(C3CC3)c(C(F)(F)F)c2C(=O)Nc2ccnc(S(C)(=O)=NC#N)c2)CC(F)(F)C1` (single isomer, unassigned) [Example 142a, N-(2-(N-Cyano-S-methylsulfonimidoyl)pyridin-4-yl)-3-cyclopropyl-1-((3,3-difluoro-1-methylcyclobutyl)methyl)-4-(trifluoromethyl)-1H-pyrazole-5-carboxamide], the IC50 was at most 100 nM.
With `Cc1c(C(C)(F)F)nn(C[C@H]2C[C@@H](C(F)(F)F)C2)c1C(=O)Nc1ccnc(S(C)(=N)=O)c1` (single isomer, unassigned) [Example 31b, 3-(1,1-difluoroethyl)-4-methyl-N-(2-(S-methylsulfonimidoyl)pyridin-4-yl)-1-(((cis)-3-(trifluoromethyl)cyclobutyl)methyl)-1H-pyrazole-5-carboxamide] the figure was at most 100 nM.

The term IC50 denotes the midpoint of a concentration-inhibition curve.
